Measured values: ChEMBL document CHEMBL1135763, “Discovery of aminothiazole inhibitors of cyclin-dependent kinase 2: synthesis, X-ray crystallographic analysis, and biological activities” (J Med Chem, 2002)
One block for each molecule: values may come before it.

Columns and labels:
[1] = biological target: Protein kinase C (PKC); test: Inhibition of Protein kinase C; type: protein assay
[2] = biological target: Cyclin-dependent kinase 1/cyclin B (Homo sapiens, UniProt P06493); test: Inhibitory activity against baculovirus expressed Cyclin dependent kinase 1-cyclinB; type: protein-complex assay
[3] = biological target: cAMP-dependent protein kinase (PKA) (Homo sapiens, UniProt P22694+P17612+P22612); test: Inhibition of Protein kinase A (PKA); type: protein assay
[4] = biological target: Cyclin-dependent kinase 4/cyclin D1 (Homo sapiens, UniProt P11802); test: Inhibitory activity against baculovirus expressed Cyclin dependent kinase 4-cyclinD1; type: protein-complex assay
Chain of Cyclin-dependent kinase 4/cyclin D1 (P11802 whole entry): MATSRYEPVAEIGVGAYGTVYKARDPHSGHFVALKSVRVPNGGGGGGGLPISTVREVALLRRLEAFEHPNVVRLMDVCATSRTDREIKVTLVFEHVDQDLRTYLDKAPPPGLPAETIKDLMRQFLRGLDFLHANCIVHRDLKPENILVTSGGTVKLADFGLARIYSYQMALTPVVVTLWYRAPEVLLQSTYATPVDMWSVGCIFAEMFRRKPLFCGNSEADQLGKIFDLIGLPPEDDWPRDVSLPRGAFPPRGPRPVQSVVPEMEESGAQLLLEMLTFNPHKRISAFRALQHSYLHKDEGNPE
Chain of Cyclin-dependent kinase 4/cyclin D1 (P24385 whole entry, further chain): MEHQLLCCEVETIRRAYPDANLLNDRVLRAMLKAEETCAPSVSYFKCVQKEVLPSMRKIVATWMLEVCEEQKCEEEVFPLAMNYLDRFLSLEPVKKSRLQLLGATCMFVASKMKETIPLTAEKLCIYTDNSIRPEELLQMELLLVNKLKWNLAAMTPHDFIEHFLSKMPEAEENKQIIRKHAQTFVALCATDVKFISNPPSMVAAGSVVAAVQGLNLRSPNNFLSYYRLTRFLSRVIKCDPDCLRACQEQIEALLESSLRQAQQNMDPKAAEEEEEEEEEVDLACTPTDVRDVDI

[5] = biological target: Cyclin-dependent kinase 2/cyclin E (Homo sapiens, UniProt P24941); test: Inhibitory activity against baculovirus expressed Cyclin dependent kinase 2-cyclinE; type: protein-complex assay
[6] = system: LX-1; test: Inhibition of LX-1 human lung carcinoma proliferation; type: functional, cell-based
[7] = system: A-431; test: Inhibition of A431 human squamous cell carcinoma cell proliferation; type: functional, cell-based
[8] = system: HCT-116; test: Inhibition of HCT116 / VM46 human colon carcinoma cell proliferation; type: functional, cell-based
[9] = system: PC-3; test: Inhibition of PC3 human prostate carcinoma cell proliferation; type: functional, cell-based
[10] = system: OVCAR-3; test: Inhibition of OVCAR-3 human ovarian carcinoma cell proliferation; type: functional, cell-based
[11] = system: A2780; test: cells; conditions: Homo sapiens
Description: Cytotoxic activity against A2780 human ovarian carcinoma cell line

[12] = system: MCF7; test: Inhibition of MCF-7 human breast carcinoma cell proliferation; type: functional, cell-based
[13] = biological target: Receptor tyrosine-protein kinase erbB-2 (Homo sapiens, UniProt P04626); test: Inhibition of HER2 kinase
Chain of Receptor tyrosine-protein kinase erbB-2 (P04626 whole entry): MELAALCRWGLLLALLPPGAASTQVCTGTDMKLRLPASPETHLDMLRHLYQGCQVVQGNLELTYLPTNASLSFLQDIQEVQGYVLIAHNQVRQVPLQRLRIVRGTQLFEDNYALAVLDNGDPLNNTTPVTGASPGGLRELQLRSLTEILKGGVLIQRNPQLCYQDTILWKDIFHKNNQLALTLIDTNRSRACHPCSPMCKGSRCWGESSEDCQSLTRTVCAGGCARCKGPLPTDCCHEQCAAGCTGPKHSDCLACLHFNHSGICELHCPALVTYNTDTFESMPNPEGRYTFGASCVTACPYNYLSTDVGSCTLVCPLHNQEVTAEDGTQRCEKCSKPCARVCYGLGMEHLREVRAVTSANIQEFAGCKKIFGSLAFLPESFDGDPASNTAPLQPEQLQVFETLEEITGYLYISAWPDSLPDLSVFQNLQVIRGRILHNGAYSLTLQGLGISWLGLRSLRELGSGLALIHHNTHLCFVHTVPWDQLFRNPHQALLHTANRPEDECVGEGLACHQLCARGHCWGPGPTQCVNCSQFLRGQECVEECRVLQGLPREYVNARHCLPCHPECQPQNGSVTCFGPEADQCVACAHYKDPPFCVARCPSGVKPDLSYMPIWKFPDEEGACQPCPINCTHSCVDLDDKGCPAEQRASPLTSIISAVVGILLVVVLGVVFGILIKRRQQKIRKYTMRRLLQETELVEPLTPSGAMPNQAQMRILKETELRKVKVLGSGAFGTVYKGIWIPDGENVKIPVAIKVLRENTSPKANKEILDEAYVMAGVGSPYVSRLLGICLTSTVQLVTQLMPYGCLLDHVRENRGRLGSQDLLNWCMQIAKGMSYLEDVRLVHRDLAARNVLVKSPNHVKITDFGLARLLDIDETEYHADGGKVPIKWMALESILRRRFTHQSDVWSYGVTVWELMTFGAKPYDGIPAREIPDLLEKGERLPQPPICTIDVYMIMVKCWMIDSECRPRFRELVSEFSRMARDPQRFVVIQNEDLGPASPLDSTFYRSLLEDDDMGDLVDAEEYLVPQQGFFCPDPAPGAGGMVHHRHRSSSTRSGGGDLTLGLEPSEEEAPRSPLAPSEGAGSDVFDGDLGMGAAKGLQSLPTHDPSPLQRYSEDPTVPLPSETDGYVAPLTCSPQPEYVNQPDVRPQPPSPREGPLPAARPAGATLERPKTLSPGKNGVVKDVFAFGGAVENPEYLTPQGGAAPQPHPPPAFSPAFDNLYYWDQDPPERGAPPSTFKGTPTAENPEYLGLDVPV

[14] = system: A2780; test: Inhibition of A2780 / TAX-R human ovarian carcinoma cell proliferation; type: functional, cell-based
[15] = system: MIP; test: Inhibition of MIP human colon carcinoma cell line; type: functional, cell-based
[16] = system: CCRF-CEM; test: Inhibition of CCRF-CEM human leukemia cell proliferation; type: functional, cell-based
[17] = biological target: Cyclin-dependent kinase 2 (Homo sapiens) (UniProt P24941); test: Apoptotic A2780 cells after 24 hr r at 295 nM (IC90); type: functional, cell-based
[18] = biological target: Cyclin-dependent kinase 2 (Homo sapiens) (UniProt P24941); test: Percentage A2780 cells in S-phase after 24 hr r at 295 nM (IC90); type: functional, cell-based
[19] = system: A2780; test: Inhibition of A2780 / DDP-R human ovarian carcinoma cell proliferation; type: functional, cell-based
[20] = system: Caco-2; test: Inhibition of CACO-2 human colon carcinoma cell proliferation; type: functional, cell-based
[21] = system: M109; test: Inhibition of M109 mouse lung carcinoma cell proliferation; type: functional, cell-based
[22] = system: SK-BR-3; test: Inhibition of SKBR-3 human breast carcinoma cell proliferation; type: functional, cell-based
[23] = system: A2780; test: Inhibition of A2780 / TAX-S human ovarian carcinoma cell proliferation; type: functional, cell-based
[24] = system: LS174T; test: Inhibition of LS174T human colon carcinoma cell proliferation; type: functional, cell-based
[25] = biological target: Cyclin-dependent kinase 2 (Homo sapiens) (UniProt P24941); test: Percentage A2780 cells in G2/M after 24 hr r at 295 nM (IC90); type: functional, cell-based
[26] = system: HS27; test: Inhibition of Hs 27 human fibroblast cell proliferation; type: functional, cell-based
[27] = system: ABAE; test: Inhibition of ABAE […] cell proliferation; type: functional, cell-based
[28] = system: A549; test: Inhibition of A549 human lung carcinoma cell proliferation; type: functional, cell-based
[29] = system: HCT-116; test: Inhibition of HCT116 / VP35 human colon carcinoma cell proliferation; type: functional, cell-based
[30] = Inhibition of Insulin-like growth factor receptor
[31] = system: A2780; test: Inhibition of A2780 / DDP-S human ovarian carcinoma cell proliferation; type: functional, cell-based
[32] = system: HL-60; test: Inhibition of HL60 human leukemia cell proliferation; type: functional, cell-based
[33] = biological target: Cyclin-dependent kinase 2 (Homo sapiens) (UniProt P24941); test: Percentage A2780 cells in sub-G1 after 24 hr r at 295 nM (IC90); type: functional, cell-based
[34] = biological target: Cyclin-dependent kinase 2 (Homo sapiens) (UniProt P24941); test: Percentage A2780 cells in G1 after 24 hr r at 295 nM (IC90); type: functional, cell-based
[35] = biological target: Cyclin-dependent kinase 2 (Homo sapiens) (UniProt P24941); test: Percentage A2780 cells in G1 after 24 hr r at 20 nM (IC50); type: functional, cell-based
[36] = biological target: Cyclin-dependent kinase 2 (Homo sapiens) (UniProt P24941); test: Apoptotic A2780 cells after 24 hr r at 20 nM (IC50); type: functional, cell-based
[37] = system: MLF; test: Inhibition of MLF mouse lung fibroblast cell proliferation; type: functional, cell-based
[38] = biological target: T1, Tyrosine-protein kinase ITK/TSK (Homo sapiens, UniProt Q08881); test: Inhibition of tyrosine kinase EMT
T1 sequence (Q08881 whole entry): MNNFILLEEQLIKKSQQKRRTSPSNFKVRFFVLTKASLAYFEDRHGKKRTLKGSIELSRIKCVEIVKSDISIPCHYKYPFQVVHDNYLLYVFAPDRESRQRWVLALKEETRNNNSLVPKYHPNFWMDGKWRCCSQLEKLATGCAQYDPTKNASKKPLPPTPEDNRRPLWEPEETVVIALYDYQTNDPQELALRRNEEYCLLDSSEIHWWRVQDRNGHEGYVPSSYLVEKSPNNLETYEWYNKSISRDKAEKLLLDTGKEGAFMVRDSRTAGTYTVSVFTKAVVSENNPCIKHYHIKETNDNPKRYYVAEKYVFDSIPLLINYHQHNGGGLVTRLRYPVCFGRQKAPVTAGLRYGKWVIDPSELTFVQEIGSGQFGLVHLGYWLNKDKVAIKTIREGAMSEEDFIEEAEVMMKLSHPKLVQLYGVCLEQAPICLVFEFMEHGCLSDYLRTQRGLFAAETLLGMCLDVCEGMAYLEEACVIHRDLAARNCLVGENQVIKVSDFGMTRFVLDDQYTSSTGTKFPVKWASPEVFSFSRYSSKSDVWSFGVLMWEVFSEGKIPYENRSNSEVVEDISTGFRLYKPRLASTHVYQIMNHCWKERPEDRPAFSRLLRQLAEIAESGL

[39] = biological target: Cyclin-dependent kinase 2 (Homo sapiens) (UniProt P24941); test: Percentage A2780 cells in S-phase after 24 hr r at 20 nM (IC50); type: functional, cell-based
[40] = biological target: Cyclin-dependent kinase 2 (Homo sapiens) (UniProt P24941); test: Percentage A2780 cells in sub-G1 after 24 hr r at 20 nM (IC50); type: functional, cell-based
[41] = biological target: Cyclin-dependent kinase 2 (Homo sapiens) (UniProt P24941); test: Percentage A2780 cells in G2/M after 24 hr r at 20 nM (IC50); type: functional, cell-based
[42] = system: K562; test: Inhibition of K562 human leukemia cell proliferation; type: functional, cell-based
[43] = system: HCT-116; test: Inhibition of HCT116 human colon carcinoma cell proliferation; type: functional, cell-based

IC50 [1]: > 50 µM
IC50 [2]: 1.87 µM
IC50 [3]: > 50 µM
IC50 [4]: 23 µM
IC50 [5]: 0.17 µM
Structure (SMILES): CCOC(=O)CSc1cnc(NC(C)=O)s1

IC50 [7]: 0.96 µM
IC50 [2]: 0.3 µM
IC50 [8]: 0.53 µM
IC50 [9]: 1.06 µM
IC50 [10]: 1.21 µM
IC50 [11]: 1.4 µM
IC50 [12]: 1.47 µM
IC50 [13]: > 25 µM
IC50 [14]: 1.14 µM
IC50 [15]: 1.79 µM
IC50 [4]: 2.25 µM
IC50 [16]: 1.45 µM
Cell cycle [17]: 16%
Cell cycle [18]: 6%
IC50 [19]: 1.42 µM
IC50 [20]: 1.61 µM
IC50 [22]: 1.64 µM
IC50 [5]: 0.02 µM
IC50 [23]: 0.7 µM
Cell cycle [25]: 25%
IC50 [28]: 1.87 µM
IC50 [29]: 0.45 µM
IC50 [30]: > 25 µM
IC50 [31]: 1.05 µM
IC50 [32]: 1.4 µM
Cell cycle [33]: 7%
Cell cycle [34]: 62%
Cell cycle [35]: 58%
Cell cycle [36]: 6%
IC50 [38]: > 10 µM
Cell cycle [39]: 11%
Cell cycle [40]: 2%
Cell cycle [41]: 29%
IC50 [42]: 3.23 µM
IC50 [43]: 0.48 µM
Structure (SMILES): CCc1cnc(CSc2cnc(NC(C)=O)s2)o1
IC50 [6]: 1.9 µM
IC50 [21]: 2.1 µM
IC50 [24]: 1.71 µM
IC50 [26]: 0.86 µM
IC50 [27]: 1.1 µM
IC50 [37]: 1.86 µM

IC50 [2]: 0.019 µM
IC50 [11]: 0.9 µM
IC50 [4]: 0.9 µM
IC50 [5]: 0.011 µM
Structure (SMILES): CC(C)(C)c1cnc(CSc2cnc(NC(=O)Nc3ccc(F)cc3)s2)o1

IC50 [2]: 0.03 µM
IC50 [11]: 0.05 µM
IC50 [4]: 0.9 µM
IC50 [5]: 0.005 µM
Structure (SMILES): CC(C)C(=O)Nc1ncc(SCc2ncc(C(C)(C)C)o2)s1
